This passage reports EC50 results from patent US10933056B2, “3-(1H-pyrazol-4-yl)pyridine allosteric modulators of the M4 muscarinic acetylcholine receptor” (Merck Sharp & Dohme Corp., priority 2015, dated 2021).

This assay concerns the target T1, human M4 muscarinic acetylcholine receptor (Homo sapiens, UniProt P08173).
T1 construct: expressed in transfected cells; host or cells: CHO-K1
T1 sequence (P08173 1-479): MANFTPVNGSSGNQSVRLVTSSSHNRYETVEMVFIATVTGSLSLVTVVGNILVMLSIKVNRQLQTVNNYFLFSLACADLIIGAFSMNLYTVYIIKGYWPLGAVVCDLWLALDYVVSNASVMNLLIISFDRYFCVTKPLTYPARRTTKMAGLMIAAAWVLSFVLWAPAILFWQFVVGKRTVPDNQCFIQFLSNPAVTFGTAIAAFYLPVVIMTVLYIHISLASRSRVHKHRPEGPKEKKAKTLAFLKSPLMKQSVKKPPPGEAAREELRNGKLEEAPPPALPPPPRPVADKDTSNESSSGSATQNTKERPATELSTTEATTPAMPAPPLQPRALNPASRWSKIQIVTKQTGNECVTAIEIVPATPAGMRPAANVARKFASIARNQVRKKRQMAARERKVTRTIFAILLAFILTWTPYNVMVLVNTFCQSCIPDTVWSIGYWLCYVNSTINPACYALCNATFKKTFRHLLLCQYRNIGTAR
As to the kind of experiment: human FLIPR-based M4 PAM assay (calcium mobilization in CHO-K1 cells with human M4 receptor and Gαqi5). Type of assay: cell-based. To be noted: inflection point of dose response curve, acetylcholine at 20% of maximum response, FLIPR Tetra, read-out: M4 PAM IP. On the procedure:
(§1) In a typical experiment the M4 muscarinic acetylcholine receptor modulating activity of the compounds of the present invention was determined in accordance with the following experimental method. CHO-K1 cells stably transfected with human M4 receptor and chimeric G-protein Gαqi5 (Coward P, et al., Analytical Biochemistry, 270:242-248 (1999)) are thawed from liquid N2 storage, resuspended in growth medium, plated in black, clear bottom 384 well plates, and incubated 16-20 hours at 37° C., 5% CO2. On the day of assay, growth medium is removed, the cells are washed 2 times with wash buffer, and cells are incubated in dye loading buffer at 37° C., 5% CO2 for ˜1 hour. Following dye loading the cell plates are placed in a FLIPR Tetra instrument and while monitoring dye fluorescence (excitation […]), 10 uL of test substance at increasing concentrations is added, and fluorescence values are recorded for 4 min. Next, 10 uL of acetylcholine is added (final concentration calculated so as to achieve 20% of the maximum acetycholine response), and the fluorescence reading is continued for 3.5 min. In some cases, a third addition of acetylcholine (final concentration calculated to achieve 70% of the maximal acetylcholine response) is performed. The resulting dose response curves are fit to a 4 parameter logistic equation and the final result is determined as the inflection point (IP) of the curve
as §1, with “CHO-K1” for “In a typical experiment the M4 muscarinic acetylcholine receptor modulating activity of the compounds of the present invention was determined in accordance with the following experimental method. CHO-K1”, “Gαqi5” for “Gαqi5 (Coward P, et al., Analytical Biochemistry, 270:242-248 (1999))”, “performed.” for “performed. The resulting dose response curves are fit to a 4 parameter logistic equation and the final result is determined as the inflection point (IP) of the curve”
On the technique in general: Calcium assays in cells follow changes in intracellular calcium, usually with a dye or a luminescent sensor.

For `CC1(Cn2cc(-c3cc4c(nc3-c3cnc5c(c3)C(=O)N(CC3CC3)C5)[C@H](F)CC4)cn2)CCCC1` (single isomer, unassigned) [Example 1A], the EC50 came to 67 nM. On to `CC1(Cn2cc(-c3cc4c(nc3-c3cnc5c(c3)C(=O)N(CC3CC3)C5)[C@@H](F)CC4)cn2)CCCC1` (single isomer, unassigned) [Example 1B], for which the EC50 was 75 nM. Consider `Cc1cc(-c2cnn(CC3(C)CCCC3)c2)c(-c2cnc3c(c2)C(=O)N(C)C3)nc1F` [Example 1, 3-(6-Fluoro-5-methyl-3-(1-((1-methylcyclopentyl)methyl)-1H-pyrazol-4-yl)pyridin-2-yl)-6-methyl-6,7-dihydro-5H-pyrrolo[3,4-b]pyridin-5-one], for which the EC50 is 39 nM. For the molecule `CN1Cc2ccc(-c3nc(C#N)ccc3-c3cnn(CC4(C)CCCC4)c3)cc2C1=O` [Example 2, 6-(2-Methyl-3-oxoisoindolin-5-yl)-5-(1-((1-methylcyclopentyl)methyl)-1H-pyrazol-4-yl)picolinonitrile], the EC50 amounted to 16 nM. In the case of `Cc1ccc(-c2cnn(CC3CCCC3)c2)c(-c2ccc3c(c2)C(=O)N(CC2CC2)C3)n1` [Example 3, 6-(3-(1-(cyclopentylmethyl)-1H-pyrazol-4-yl)-6-methylpyridin-2-yl)-2-(cyclopropylmethyl)isoindolin-1-one], the EC50 was determined as 38 nM. In the case of `Cc1ccc(-c2cnn(CC3CCCC3)c2)c(-c2ccc3c(c2)C(=O)N(CCc2ccccc2)C3)n1` [Example 4, 6-(3-(1-(cyclopentylmethyl)-1H-pyrazol-4-yl)-6-methylpyridin-2-yl)-2-phenethylisoindolin-1-one], the EC50 turned out to be 37 nM. In the case of `Cc1ccc(-c2cnn(CC3CCCC3)c2)c(-c2ccc3c(c2)C(=O)N(CC2CCCO2)C3)n1` (stereo not drawn) [Example 5, 6-(3-(1-(cyclopentylmethyl)-1H-pyrazol-4-yl)-6-methylpyridin-2-yl)-2-((tetrahydrofuran-2-yl)methyl)isoindolin-1-one], the EC50 was found to be 20 nM. In the case of `Cc1ccc(-c2cnn(CC3CCCC3)c2)c(-c2ccc3c(c2)C(=O)N(C2CC2)C3)n1` [Example 6, 6-(3-(1-(cyclopentylmethyl)-1H-pyrazol-4-yl)-6-methylpyridin-2-yl)-2-cyclopropylisoindolin-1-one], the EC50 was 20 nM. Regarding `O=C1c2cc(-c3nccc(F)c3-c3cnn(CC4CCCC4)c3)ccc2CN1CC1CC1` [Example 7, 6-(3-(1-(cyclopentylmethyl)-1H-pyrazol-4-yl)-4-fluoropyridin-2-yl)-2-(cyclopropylmethyl)isoindolin-1-one], the EC50 was 22 nM. Regarding `O=C1c2cc(-c3ncccc3-c3cnn(CC4CCCC4)c3F)ccc2CN1CC1CC1` [Example 8, 6-(3-(1-(cyclopentylmethyl)-5-fluoro-1H-pyrazol-4-yl)pyridin-2-yl)-2-(cyclopropylmethyl)isoindolin-1-one], the EC50 is 142 nM. Consider `Cc1ccc(-c2cnn(CC3CCCC3)c2F)c(-c2ccc3c(c2)C(=O)N(CC2CC2)C3)n1` [Example 9, 6-(3-(1-(cyclopentylmethyl)-5-fluoro-1H-pyrazol-4-yl)-6-methylpyridin-2-yl)-2-(cyclopropylmethyl)isoindolin-1-one], for which the EC50 was 12 nM. Regarding `CC1(Cn2cc(-c3cc4c(nc3-c3cnc5c(c3)C(=O)N(CC3CC3)C5)CCC4)cn2)CCCC1` [Example 10, 6-(cyclopropylmethyl)-3-(3-(1-((1-methylcyclopentyl)methyl)-1H-pyrazol-4-yl)-6,7-dihydro-5H-cyclopenta[b]pyridin-2-yl)-6,7-dihydro-5H-pyrrolo[3,4-b]pyridin-5-one], the EC50 is 54 nM. `CN1Cc2ccc(-c3nc(C#N)ccc3-c3cnn(CC4CCCC4)c3)cc2C1=O` [Example 11, 5-(1-(cyclopentylmethyl)-1H-pyrazol-4-yl)-6-(2-methyl-3-oxoisoindolin-5-yl)picolinonitrile]: the EC50 was determined as 11 nM. Consider `CNC(=O)c1ccc(-c2cnn(CC3CCCC3)c2)c(-c2ccc3c(c2)C(=O)N(CC2CC2)C3)n1` [Example 12, 5-(1-(cyclopentylmethyl)-1H-pyrazol-4-yl)-6-(2-(cyclopropylmethyl)-3-oxoisoindolin-5-yl)-N-methylpicolinamide], for which the EC50 was found to be 348 nM.

As to `CNC(=O)c1ccc(-c2cnn(CC3CCCC3)c2)c(-c2ccc3c(c2)C(=O)N(C2CC2)C3)n1` [Example 13, 5-(1-(cyclopentylmethyl)-1H-pyrazol-4-yl)-6-(2-cyclopropyl-3-oxoisoindolin-5-yl)-N-methylpicolinamide], the EC50 is 613 nM.

For `CNC(=O)c1ccc(-c2cnn(CC3CCCC3)c2)c(-c2ccc3c(c2)C(=O)N(C)C3)n1` [Example 14, 5-(1-(cyclopentylmethyl)-1H-pyrazol-4-yl)-N-methyl-6-(2-methyl-3-oxoisoindolin-5-yl)picolinamide], the EC50 was 687 nM.

`NC(=O)c1ccc(-c2cnn(CC3CCCC3)c2)c(-c2ccc3c(c2)C(=O)N(CC2CC2)C3)n1` [Example 15, 5-(1-(cyclopentylmethyl)-1H-pyrazol-4-yl)-6-(2-(cyclopropylmethyl)-3-oxoisoindolin-5-yl)picolinamide]: the EC50 amounted to 94 nM. In the case of `NC(=O)c1ccc(-c2cnn(CC3CCCC3)c2)c(-c2ccc3c(c2)C(=O)N(C2CC2)C3)n1` [Example 16, 5-(1-(cyclopentylmethyl)-1H-pyrazol-4-yl)-6-(2-cyclopropyl-3-oxoisoindolin-5-yl)picolinamide], the EC50 came out at 297 nM. Regarding `CN1Cc2ccc(-c3nc(C(N)=O)ccc3-c3cnn(CC4CCCC4)c3)cc2C1=O` [Example 17, 5-(1-(cyclopentylmethyl)-1H-pyrazol-4-yl)-6-(2-methyl-3-oxoisoindolin-5-yl)picolinamide], the EC50 is 278 nM. As for `N#Cc1ccc(-c2cnn(CC3CCCC3)c2)c(-c2ccc3c(c2)C(=O)N(CC2CC2)C3)n1` [Example 18, 5-(1-(cyclopentylmethyl)-1H-pyrazol-4-yl)-6-(2-(cyclopropylmethyl)-3-oxoisoindolin-5-yl)picolinonitrile], the EC50 came out at 8 nM. For `N#Cc1ccc(-c2cnn(CC3CCCC3)c2)c(-c2ccc3c(c2)C(=O)N(C2CC2)C3)n1` [Example 19, 5-(1-(cyclopentylmethyl)-1H-pyrazol-4-yl)-6-(2-cyclopropyl-3-oxoisoindolin-5-yl)picolinonitrile], the EC50 stood at 9 nM.

With `N#Cc1ccc(-c2cnn(CC3CCCC3)c2)c(-c2ccc3c(c2)C(=O)NC3)n1` [Example 20, 5-(1-(cyclopentylmethyl)-1H-pyrazol-4-yl)-6-(3-oxoisoindolin-5-yl)picolinonitrile], the EC50 amounted to 9 nM. For `O=C1c2cc(-c3nc(F)ccc3-c3cnn(CC4CCCC4)c3)ccc2CN1CC1CC1` [Example 21, 6-(3-(1-(cyclopentylmethyl)-1H-pyrazol-4-yl)-6-fluoropyridin-2-yl)-2-(cyclopropylmethyl)isoindolin-1-one], the EC50 stood at 22 nM.

Take `CN1Cc2ccc(-c3nc(F)ccc3-c3cnn(CC4CCCC4)c3)cc2C1=O` [Example 22, 6-(3-(1-(cyclopentylmethyl)-1H-pyrazol-4-yl)-6-fluoropyridin-2-yl)-2-methylisoindolin-1-one]: the EC50 came out at 28 nM. Under `O=C1c2cc(-c3nc(F)ccc3-c3cnn(CC4CCCC4)c3)ccc2CN1C1CC1` [Example 23, 6-(3-(1-(cyclopentylmethyl)-1H-pyrazol-4-yl)-6-fluoropyridin-2-yl)-2-cyclopropylisoindolin-1-one] stands 34 nM; under `CC1(Cn2cc(-c3cccnc3-c3ccc4c(c3)C(=O)NC4)cn2)CCCC1` [Example 24, 6-(3-(1-((1-methylcyclopentyl)methyl)-1H-pyrazol-4-yl)pyridin-2-yl)isoindolin-1-one], 20 nM; under `CN1Cc2ccc(-c3ncccc3-c3cnn(CC4(C)CCCC4)c3)cc2C1=O` [Example 25, 2-methyl-6-(3-(1-((1-methylcyclopentyl)methyl)-1H-pyrazol-4-yl)pyridin-2-yl)isoindolin-1-one], 21 nM.
